Results published in patent publication US20170253607A1, “LONG-ACTING HIV PROTEASE INHIBITOR” (Shionogi & Co., Ltd., priority 2014, published 2017).

How the values were obtained:
HIV-1 PR = HIV-1 PR (Human immunodeficiency virus type 1 group M subtype B, UniProt P04585); test: HIV-protease inhibitory activity assay (FRET peptide substrate); format: biochemical; details: Test Example 1
Outline: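 HIV-1 PR (0.83 ng) preincubated with compounds 20 min at room temperature in 0.1 mol/L NaAc, 0.5 mol/L NaCl, 1 mmol/L EDTA, 1 mmol/L DTT, 0.05% Tween 20, pH 4.8. Cleavage of HiLyte Fluor 488/QXL 520 FRET peptide (2 μmol/L) read after 60 minutes at 485/535 nm; IC50 from four-parameter logistic fit.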

[1] = Evaluation of total body clearance (CLtot), intravenous administration; format: in vivo, Sprague-Dawley (SD); details: rat (SD), intravenous administration 0.5-10 mg/kg; CLtot = dose/AUC
Experimental: Dose: Intravenous administration with designated doses was selected. (Doses were changed depending on compounds.) • 0.5-10 mg/kg (n=2-3) Preparation of dosing formulation: The dosing solution was prepared by dissolving in an adequate solvent. Administration method: The dosing solution was injected into the tail vein by a syringe with a needle Blood sampling: The blood was collected at the scheduled time and obtained the plasma. Plasma concentrations of the compound were measured by LC/MS/MS. Statistical analysis: Area under the plasma concentration-time curve (AUC) of the compound was calculated by pharmacokinetic analysis software, WinNonlin™ and CLtot was calculated by dividing the dose by AUC.

COc1ccc(S(=O)(=O)N(CC(C)C)CC(O)C(Cc2ccc(NCc3cc4ccccc4nc3-c3sc4c(c3C(=O)O)CC(C)(C)CC4)cc2)NC(=O)OC2COC3(C)OCCC23)cc1 (centres unmarked) [Compound I-652]
IC50 (HIV-1 PR): 2.46 nM
rat_CLt [1]: 0.641 mL/min/kg

COc1ccc(S(=O)(=O)N(CC(C)C)CC(O)C(Cc2ccc(NCC3CCCC3c3sc4c(c3C(=O)O)CC(C)(C)CC4)cc2)NC(=O)OC2COC3(C)OCCC23)cc1 (centres unmarked) [Compound I-409]
IC50 (HIV-1 PR): 2.45 nM
rat_CLt [1]: 0.873 mL/min/kg

COc1ccc(S(=O)(=O)N(CC(C)C)CC(O)C(Cc2ccc(NCc3cc(C)ccc3-c3sc4c(c3C(=O)O)CC(C)(C)CC4)cc2)NC(=O)OC2COC3(C)OCCC23)cc1 (centres unmarked) [Compound I-545]
IC50 (HIV-1 PR): 1.85 nM
rat_CLt [1]: 1.15 mL/min/kg

COc1ccc(S(=O)(=O)N(CC(C)C)CC(O)C(Cc2ccc(NCc3cccc(C(F)(F)F)c3-c3sc4c(c3C(=O)O)CC(C)(C)CC4)cc2)NC(=O)OC2COC3(C)OCCC23)cc1 (centres unmarked) [Compound I-485]
IC50 (HIV-1 PR): 2.28 nM
rat_CLt [1]: 0.45 mL/min/kg

COc1ccc(S(=O)(=O)N(CC(C)C)CC(O)C(Cc2ccc(NCc3cc(N4CCOCC4)ccc3-c3sc4c(c3C(=O)O)CC(C)(C)CC4)cc2)NC(=O)OC2COC3(C)OCCC23)cc1 (centres unmarked) [Compound I-679]
IC50 (HIV-1 PR): 2.82 nM
rat_CLt [1]: 1.65 mL/min/kg

COc1ccc(S(=O)(=O)N(CC(C)C)CC(O)C(Cc2ccc(N(C)Cc3ccc(-c4sc5c(c4C(=O)O)CC(C)(C)CC5)cn3)cc2)NC(=O)OC2COC3(C)OCCC23)cc1 (centres unmarked) [Compound I-449]
IC50 (HIV-1 PR): 2.19 nM
rat_CLt [1]: 11.1 mL/min/kg

CC1(C)CCc2sc(NC(=O)c3ccccc3CNc3ccc(CC(NC(=O)OC4COC5(C)OCCC45)C(O)CN(CC4CCC4)S(=O)(=O)c4ccc5c(c4)OCO5)cc3)c(C(=O)O)c2C1 (centres unmarked) [Compound I-613]
IC50 (HIV-1 PR): 2.55 nM
rat_CLt [1]: 0.0573 mL/min/kg

COc1ccc(S(=O)(=O)N(CC(C)C)CC(O)C(Cc2ccc(N(C)Cc3cc(N4CCCC4=O)ccc3-c3sc4c(c3C(=O)O)CC(C)(C)CC4)cc2)NC(=O)OC2COC3(C)OCCC23)cc1 (centres unmarked) [Compound I-584]
IC50 (HIV-1 PR): 2.3 nM
rat_CLt [1]: 0.77 mL/min/kg

C=CCNc1ccc(-c2sc3c(c2C(=O)O)CC(C)(C)CC3)c(CNc2ccc(CC(NC(=O)OC3COC4(C)OCCC34)C(O)CN(CC(C)C)S(=O)(=O)c3ccc(OC)cc3)cc2)c1 (centres unmarked) [Compound I-676]
IC50 (HIV-1 PR): 2.42 nM
rat_CLt [1]: 0.145 mL/min/kg

COc1ccc(S(=O)(=O)N(CC(C)C)CC(O)C(Cc2ccc(NCc3ccc4scc(C(=O)Nc5sc6c(c5C(=O)O)CC(C)(C)CC6)c4c3)cc2)NC(=O)OC2COC3(C)OCCC23)cc1 (centres unmarked) [Compound I-440]
IC50 (HIV-1 PR): 4.5 nM
rat_CLt [1]: 0.871 mL/min/kg

COc1ccc(S(=O)(=O)N(CC(C)C)CC(O)C(Cc2ccc(N3CCC(Oc4ccc(C(F)(F)F)cc4-c4sc5c(c4C(=O)O)CC(C)(C)CC5)C3)cc2)NC(=O)OC2COC3(C)OCCC23)cc1 (centres unmarked) [Compound I-514]
IC50 (HIV-1 PR): 6.21 nM
rat_CLt [1]: 3.01 mL/min/kg

COc1ccc(S(=O)(=O)N(CC2CCC2)CC(O)C(Cc2ccc(NCc3ccccc3C(=O)Nc3sc4c(c3C(=O)O)CC(C)(C)CC4)cc2)NC(=O)OC2COC3(C)OCCC23)cc1 (centres unmarked) [Compound I-602]
IC50 (HIV-1 PR): 3.67 nM
rat_CLt [1]: 0.0667 mL/min/kg

COc1ccc(S(=O)(=O)N(CC(C)C)C[C@@H](O)[C@H](Cc2ccc(NCc3cc(-c4ccc(N(C)C)cc4)ccc3-c3sc4c(c3C(=O)O)CC(C)(C)CC4)cc2)NC(=O)O[C@H]2CO[C@@]3(C)OCC[C@@H]23)cc1 [Compound I-720]
IC50 (HIV-1 PR): 2.42 nM
rat_CLt [1]: 0.0677 mL/min/kg

COc1ccc(S(=O)(=O)N(CC(C)C)CC(O)C(Cc2ccc(NCc3cccc(C(=O)Nc4sc5c(c4C(=O)O)CC(C)(C)CC5)c3)cc2)NC(=O)OC2COC3(C)OCCC23)cc1 (centres unmarked) [Compound I-436]
IC50 (HIV-1 PR): 3.17 nM
rat_CLt [1]: 1.72 mL/min/kg

COc1ccc(S(=O)(=O)N(CC(C)C)CC(O)C(Cc2ccc(NCc3cc4ccccc4cc3-c3sc4c(c3C(=O)O)CC(C)(C)CC4)cc2)NC(=O)OC2COC3(C)OCCC23)cc1 (centres unmarked) [Compound I-581]
IC50 (HIV-1 PR): 4.02 nM
rat_CLt [1]: 0.204 mL/min/kg

COc1ccc(S(=O)(=O)N(CC(C)C)CC(O)C(Cc2ccc(N(C)Cc3ccccc3-c3sc(N(C4CCCCC4)C4CCCCC4)nc3C(=O)O)cc2)NC(=O)OC2COC3(C)OCCC23)cc1 (centres unmarked) [Compound I-471]
IC50 (HIV-1 PR): 4.69 nM
rat_CLt [1]: 2.17 mL/min/kg

COc1ccc(S(=O)(=O)N(CC(C)C)CC(O)C(Cc2ccc(NCc3ncccc3-c3sc4c(c3C(=O)O)CC(C)(C)CC4)cc2)NC(=O)OC2COC3(C)OCCC23)cc1 (centres unmarked) [Compound I-305]
IC50 (HIV-1 PR): 1.99 nM
rat_CLt [1]: 1.55 mL/min/kg

CC(C)CN(CC(O)C(Cc1ccc(OCc2nc(Oc3ccccc3)sc2C(=O)O)cc1)NC(=O)OC1COC2OCCC12)S(=O)(=O)c1ccc2ncsc2c1 (centres unmarked) [Compound I-842]
IC50 (HIV-1 PR): 0.69 nM

COc1ccc(S(=O)(=O)N(CC(C)C)CC(O)C(Cc2ccc(NCc3cc(C)c(-c4sc5c(c4C(=O)O)CC(C)(C)CC5)c(C)c3)cc2)NC(=O)OC2COC3(C)OCCC23)cc1 (centres unmarked) [Compound I-533]
IC50 (HIV-1 PR): 10.6 nM

CC(C)CN(CC(O)C(Cc1ccc(CCc2sc3c(c2C(=O)O)CC(C)(C)CC3)cc1)NC(=O)OC1COC2(C)OCCC12)S(=O)(=O)c1ccc2ncsc2c1 (centres unmarked) [Compound I-107]
IC50 (HIV-1 PR): 2.37 nM

COc1ccc(S(=O)(=O)N(CC(C)C)CC(O)C(Cc2ccc(OCc3ccccc3-c3ccc4[nH]c(=O)c(-c5ccc(Oc6ccccc6)cc5)c(O)c4c3)cc2)NC(=O)OC2COC3(C)OCCC23)cc1 (centres unmarked) [Compound I-180]
IC50 (HIV-1 PR): 2.71 nM

COc1ccc(S(=O)(=O)N(CC(C)C)CC(O)C(Cc2ccc(N(C)c3cccc(-c4sc5c(c4C(=O)O)CC(C)(C)CC5)c3)cc2)NC(=O)OC2COC3(C)OCCC23)cc1 (centres unmarked) [Compound I-479]
IC50 (HIV-1 PR): 2.49 nM

COc1ccc(S(=O)(=O)N(CC(C)C)CC(O)C(Cc2ccc(OCc3cc(Cc4ccc(F)cc4)cnc3C(=O)O)cc2)NC(=O)OC2COC3(C)OCCC23)cc1 (centres unmarked) [Compound I-308]
IC50 (HIV-1 PR): 1.91 nM

COc1ccc(S(=O)(=O)N(CC(C)C)CC(O)C(Cc2ccc(NCc3nc(N4CCOCC4)sc3-c3sc4c(c3C(=O)O)CC(C)(C)CC4)cc2)NC(=O)OC2COC3(C)OCCC23)cc1 (centres unmarked) [Compound I-738]
IC50 (HIV-1 PR): 1.8 nM

COc1ccc(S(=O)(=O)N(CC(C)C)CC(O)C(Cc2ccc(N(C)Cc3cc4c(cc3-c3sc5c(c3C(=O)O)CC(C)(C)CC5)OCC(=O)N4C)cc2)NC(=O)OC2COC3(C)OCCC23)cc1 (centres unmarked) [Compound I-768]
IC50 (HIV-1 PR): 2.95 nM

COc1ccc(S(=O)(=O)N(CC(C)C)CC(O)C(Cc2ccc(NCc3cccc(C)c3C(=O)Nc3sc4c(c3C(=O)O)CC(C)(C)CC4)cc2)NC(=O)OC2COC3(C)OCCC23)cc1 (centres unmarked) [Compound I-718]
IC50 (HIV-1 PR): 3.97 nM

COc1ccc(S(=O)(=O)N(CC(C)C)CC(O)C(Cc2ccc(NCc3ccc(-c4sc5c(c4C(=O)O)CC(C)(C)CC5)c(OC)c3)cc2)NC(=O)OC2COC3(C)OCCC23)cc1 (centres unmarked) [Compound I-554]
IC50 (HIV-1 PR): 1.77 nM

COc1ccc(S(=O)(=O)N(CC(C)C)CC(O)C(Cc2ccc(NCc3ccccc3-c3ccc4c(c3)cc(C(=O)O)n4C)cc2)NC(=O)OC2COC3(C)OCCC23)cc1 (centres unmarked) [Compound I-899]
IC50 (HIV-1 PR): 1.46 nM

COc1ccc(S(=O)(=O)N(CC(C)C)CC(O)C(Cc2ccc(NCC3CC(C)(C)CCC3c3sc4c(c3C(=O)O)CC(C)(C)CC4)cc2)NC(=O)OC2COC3OCCC23)cc1 (centres unmarked) [Compound I-886]
IC50 (HIV-1 PR): 3.68 nM

COc1ccc(S(=O)(=O)N(CC(C)C)CC(O)C(Cc2ccc(N(Cc3ccccc3-c3sc4c(c3C(=O)O)CC(C)(C)CC4)C(C)=O)cc2)NC(=O)OC2COC3(C)OCCC23)cc1 (centres unmarked) [Compound I-339]
IC50 (HIV-1 PR): 1.83 nM
